{"source": "patent US10588935B2", "about": "“FC receptor (FcRn) binding peptides and uses thereof” (THE BRIGHAM AND WOMEN'S HOSPITAL, INC., priority 2013, dated 2020)", "key": {"[1]": {"test_system": "MDCK II cells expressing hFcRn and hβ2m", "experiment": "FcRn dependent albumin transcytosis bioassay", "assay_type": "cell-based, canine", "conditions": "input chamber pH 6.0, exit pH 7.4, 2 hours, compared to scrambled peptide or isotype control", "method": "Albumin transcytosis assays were performed as previously described for IgG. In brief, MDCK II cells expressing hβ2m and hFcRn were grown to confluence on transwells (Costar) and allowed to polarize over 4 days. 12 hours before the transcytosis experiment, the medium was changed to serum-free media without antibiotics. On the day of experiment, the transwells were incubated with HBSS pH 7.4 for 20 minutes before placing on a new 12 well plate (Costar) where the input chamber contains HBSS pH 6.0 and the exit chamber contains HBSS pH 7.4 and pH adjusted albumin was added to the input chamber afterwards. For blocking albumin transcytosis with the peptide inhibitors SYN1753 and SYN3258, transwells were pre-incubated for 20 min with the respective peptides in HBSS pH 6.0 prior to the addition of albumin in the continued presence of the peptides. After incubating for 2 hours in 37° C. and 5% CO2, the medium at the opposite chamber were harvested and the albumin concentration was measured using ELISA method. For the recycling assay, the transwells were washed with HBSS pH 7.4 for 5 minutes before placing on a new 12-well plate with HBSS pH 6.0 at both chambers. After equilibration at 37° C. and 5% CO2, pH adjusted albumin human albumin was added and allowed to incubate for one hour. The transwells were then washed at HBSS pH 6.0 before placing in a new 12-well plate with HBSS pH 7.4 at both chambers. After one hour incubation, medium from the input chamber was removed and the albumin concentration was measured by ELISA. For the human albumin secretion assay the medium was changed to serum- and antibiotic-free media on the day of the experiment. 50 μL of the medium from both chambers were removed periodically over 24 hours, and the human albumin concentration was measured using ELISA with volume reduction adjustment."}, "[2]": {"biological_target": "T1, soluble human FcRn (Homo sapiens, UniProt P55899)", "T1 construct": "Soluble human FcRn was expressed and purified by Biogen-Idec as previously described (29)", "T1 sequence (P55899 24-297 limits assumed)": "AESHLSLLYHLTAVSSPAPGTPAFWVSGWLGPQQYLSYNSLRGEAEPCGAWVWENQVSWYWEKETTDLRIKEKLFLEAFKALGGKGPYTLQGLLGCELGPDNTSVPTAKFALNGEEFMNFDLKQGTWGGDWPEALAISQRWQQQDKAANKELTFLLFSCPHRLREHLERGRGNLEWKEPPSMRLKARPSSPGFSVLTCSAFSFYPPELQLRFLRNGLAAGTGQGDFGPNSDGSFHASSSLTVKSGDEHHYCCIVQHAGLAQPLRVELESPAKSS", "T1 sequence (P61769 21-119 partner)": "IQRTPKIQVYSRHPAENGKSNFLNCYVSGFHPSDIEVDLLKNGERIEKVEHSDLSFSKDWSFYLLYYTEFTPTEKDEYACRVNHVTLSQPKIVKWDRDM", "experiment": "SPR (Biacore) affinity of peptides for immobilized soluble human FcRn", "assay_type": "binding", "procedure,_shortened": "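FcRn amine-coupled to CM5 chip; binding run at pH 6.0 or 7.4 in 50 mM phosphate, 100 mM NaCl, 0.01% P20, with 5-minute dissociation and pH 8.0 Tris regeneration. KD derived from sensorgrams with a 1:1 binding model; end-of-association responses plotted versus concentration.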"}, "[3]": {"biological_target": "shFcRn binding to HSA (Homo sapiens, UniProt P55899)", "sequence (P55899 24-297 limits assumed)": "as the sequence (P55899 24-297 limits assumed) above", "sequence (P61769 21-119 partner)": "as the sequence (P61769 21-119 partner) above", "experiment": "SPR screening of FcRn binding peptides for inhibition of shFcRn binding to immobilized HSA", "conditions": "14 uM peptide, 5 uM shFcRn, pH 6", "method": "Unreacted sites were then capped by injecting a solution of ethanolamine over the chip surface. A reference flow cell was activated with EDC/NHS and then blocked with ethanolamine.\nSamples were injected over the chip for 3 minutes at 20 uL/min followed by a 2.5 minute dissociation phase."}, "[4]": {"biological_target": "FcRn (Homo sapiens, UniProt P55899)", "sequence (P55899 24-297 limits assumed)": "as the sequence (P55899 24-297 limits assumed) above", "sequence (P61769 21-119 partner)": "as the sequence (P61769 21-119 partner) above", "experiment": "Competition for albumin or IgG binding to FcRn", "set-up": "Soluble human FcRn was expressed and purified by Biogen-Idec as previously described (29)", "conditions": "for competition with IgG or albumin for the FcRn binding site: competition experiments / SPR", "from_the_text": "Peptide phage libraries, obtained from Dyax Corp, were screened against biotinylated soluble human FcRn bound to streptavidin beads, using 3 rounds of sequential pH 6.0 binding and pH 7.5 elution/amplification protocols. […] Peptide SYN514 was utilized during a 2nd peptide phage screen to occupy this site on FcRn prior to the addition of the phage libraries, and to identify albumin-competitive sequences. This strategy uncovered the albumin-competitive peptide, SYN571, and through structure-activity relationships, the shorter sequence SYN1753 (Ac-[…]-CONH2 (SEQ ID NO: 1) (disulfide) which bound to shFcRn with equivalent affinity as determined by SPR."}, "[5]": {"test_system": "hFCGRT^Tg/hB2m^Tg/mFcgrt^−/− mice", "experiment": "In vivo acetaminophen toxicity with blockade of FcRn-albumin interaction", "set-up": "species or system mouse", "conditions": "40 mg/kg body weight per day via i.p. osmotic pump; vs control peptide", "method": "In vivo acetaminophen toxicity experiments: Acetaminophen (Sigma-Aldrich) was diluted in PBS at a concentration of 33.3 mg/ml. […] In blocking experiments using antibody administration, ADM31 or isotype control were administered 14 h prior to the injection of APAP. For blocking the interaction between FcRn and albumin via peptide, a cyclic control peptide for SYN3258 was designed in which three key residues per monomer that were identified by alanine screening to be critical for binding between FcRn and albumin were mutated to alanines (W7A, W11A, […]). SYN3258 or the control peptide were then continuously administered at a dose of 40 mg/kg body weight per day via i.p. osmotic pumps (Alzet, Cupertino, Cat. No 1003D) over a 72 hour period. Prior to the surgical implantation of the pumps, mice were anaesthetized with Buprenex (0.1 mg/kg body weight) s.c. and Ketamine HCl (100 mg/kg)/Xylazine (10 mg/kg) i.p. Hair on the incision site was clipped and the implantation area was disinfected by 5% iodine in 70% isopropanol. Antibiotics (100 μg/ml of gentamycin) were sprayed on the area of incision to prevent infection, and skin was sutured using polypropylene suture. Total duration of the surgical procedure was around 5 minutes per mouse. 18-20 hours after pump implantation, a lethal dose of acetaminophen was administered i.p."}, "[6]": {"conditions": "pH 6.0, read-out: affinity for FcRn by SPR"}, "[7]": {"conditions": "Table 2, pH 7.4, data only 100 uM, therefore Kd may be higher, read-out: Kd, pH 7.4 Biacore"}, "[8]": {"conditions": "Table 1, pH 6, shFcRn immobilized on the sensor chip, steady state fit, read-out: Kd, pH 6** Biacore"}}, "note": "pKd: −log10 of the molar value. “And” between values parts separate entries of the source, which are not always exact repeats. Equal values may be shown once. “Also recorded” adds a separate entry of the source. Read-outs that look alike come from different tables or passages of the source. Bridge positions count the residues as written; N and C are the ends. Peptide text beside a SMILES is read from it."}
{"molecule": "CC(=O)N[C@@H](CCCNC(=N)N)C(=O)N[C@@H](Cc1ccc(O)cc1)C(=O)N[C@@H](Cc1ccccc1)C(=O)N[C@H]1CSSC[C@@H](C(=O)N[C@@H](CCC(=O)O)C(=O)N[C@@H](CCC(=O)O)C(=O)N[C@H](C(=O)NCC(=O)N[C@H](C(N)=O)[C@@H](C)O)C(C)C)NC(=O)[C@H](Cc2c[nH]c3ccccc23)NC(=O)CNC(=O)[C@H](Cc2c[nH]cn2)NC(=O)[C@H](CCCCN)NC(=O)[C@H](Cc2c[nH]c3ccccc23)NC(=O)[C@H](CCCCN)NC(=O)[C@H]([C@@H](C)O)NC1=O", "note": "[SYN1753]", "values": [{"measurement": "transcytosis of human albumin", "setting": "[1]", "value": "capable of blocking transcytosis of human albumin; also recorded: significantly reducing"}, {"measurement": "Kd", "setting": "[2]; Table 3, pH 6.0, read-out: Kd, pH 6.0 (Biacore μM)", "value": 0.5, "unit": "µM"}, {"measurement": "pKd", "setting": "[2]; [6]", "value": "~6.30"}]}
{"molecule": "CSCC[C@H](NC(=O)[C@@H](NC(C)=O)C(C)C)C(=O)N[C@@H](Cc1c[nH]cn1)C(=O)N[C@H]1CSSC[C@@H](C(=O)N[C@@H](CCC(=O)O)C(=O)N[C@@H](Cc2ccc(O)cc2)C(=O)N[C@H](C(N)=O)C(C)C)NC(=O)[C@H](CCCNC(=N)N)NC(=O)[C@H](Cc2ccccc2)NC(=O)[C@H](CCC(=O)O)NC(=O)[C@H](CCC(=O)O)NC(=O)[C@H](CC(=O)O)NC(=O)[C@H](Cc2c[nH]c3ccccc23)NC(=O)[C@H](Cc2ccccc2)NC1=O", "note": "[SYN1383] (Ac-VMHCFWDEEFRCEYV-NH2; disulfide 4-12 (inferred))", "values": [{"measurement": "block of shFcRn binding to immobilized HSA", "setting": "[3]", "value": "not able to block the binding of shFcRn to HSA"}, {"measurement": "Competition for albumin or IgG binding to FcRn", "setting": "[4]; Table 3", "value": "none"}, {"measurement": "competition with IgG or albumin for the FcRn binding site", "setting": "[4]", "value": "not been shown to be competitive with IgG or any other proteins; also recorded: does not block IgG binding to FcRn; also recorded: non-IgG, non-albumin competitive"}, {"measurement": "Kd Ratio 7.4/6.0", "setting": "[2]; Table 2", "value": 34}, {"measurement": "pKd", "setting": "[2]; Table 2, pH 6, immobilized shFcRn, data fit steady state or 2 site, read-out: Kd, pH 6** Biacore", "value": 7.49}, {"measurement": "pKd", "setting": "[2]; [7]", "value": 5.96}]}
{"molecule": "CC(=O)N[C@@H](CCCNC(=N)N)C(=O)N[C@@H](Cc1ccc(O)cc1)C(=O)N[C@@H](Cc1ccccc1)C(=O)N[C@H]1CSSC[C@@H](C(=O)N[C@@H](CCC(=O)O)C(=O)N[C@@H](CCC(=O)O)C(=O)N[C@H](C(=O)NCC(=O)N[C@H](C(=O)NCC(=O)NCC(=O)NCC(=O)N[C@@H](CCCNC(=N)N)C(=O)N[C@@H](Cc2ccc(O)cc2)C(=O)N[C@@H](Cc2ccccc2)C(=O)N[C@H]2CSSC[C@@H](C(=O)N[C@@H](CCC(=O)O)C(=O)N[C@@H](CCC(=O)O)C(=O)N[C@H](C(=O)NCC(=O)N[C@H](C(N)=O)[C@@H](C)O)C(C)C)NC(=O)[C@H](Cc3c[nH]c4ccccc34)NC(=O)CNC(=O)[C@H](Cc3c[nH]cn3)NC(=O)[C@H](CCCCN)NC(=O)[C@H](Cc3c[nH]c4ccccc34)NC(=O)[C@H](CCCCN)NC(=O)[C@H]([C@@H](C)O)NC2=O)[C@@H](C)O)C(C)C)NC(=O)[C@H](Cc2c[nH]c3ccccc23)NC(=O)CNC(=O)[C@H](Cc2c[nH]cn2)NC(=O)[C@H](CCCCN)NC(=O)[C@H](Cc2c[nH]c3ccccc23)NC(=O)[C@H](CCCCN)NC(=O)[C@H]([C@@H](C)O)NC1=O", "note": "[SYN3258] (Ac-RYFCTKWKHGWCEEVGTGGGRYFCTKWKHGWCEEVGT-NH2; disulfide 4-12, 24-32)", "values": [{"measurement": "protection from liver injury (serum ALT) after lethal dose of APAP", "setting": "[5]", "value": "conferred protection from liver injury"}, {"measurement": "survival rate after lethal dose of APAP", "setting": "[5]", "value": "improve the survival rate"}, {"measurement": "transcytosis of human albumin", "setting": "[1]", "value": "capable of blocking transcytosis of human albumin; also recorded: inhibit FcRn-directed transcytosis of albumin"}, {"measurement": "transcytosis of human albumin", "setting": "[1]; listed as Syn3258", "value": "significantly reducing"}, {"measurement": "pKd", "setting": "[2]; [6]", "value": 8.44}]}
{"molecule": "CC(=O)N[C@@H](C)C(=O)NCC(=O)N[C@@H](CCCNC(=N)N)C(=O)N[C@@H](Cc1ccc(O)cc1)C(=O)N[C@@H](Cc1ccccc1)C(=O)N[C@H]1CSSC[C@@H](C(=O)N[C@@H](CCC(=O)O)C(=O)N[C@@H](CCC(=O)O)C(=O)N[C@H](C(=O)NCC(=O)N[C@H](C(=O)NCC(=O)NCC(N)=O)[C@@H](C)O)C(C)C)NC(=O)[C@H](Cc2c[nH]c3ccccc23)NC(=O)CNC(=O)[C@H](Cc2c[nH]cn2)NC(=O)[C@H](CCCCN)NC(=O)[C@H](Cc2c[nH]c3ccccc23)NC(=O)[C@H](CCCCN)NC(=O)[C@H]([C@@H](C)O)NC1=O", "note": "[SYN1708]", "values": [{"measurement": "pKd", "setting": "[2]; [8]", "value": 6.24}]}
{"molecule": "Ac-AGVMHCFWDEEFKCDQGGTGGGK-CONH2 (Ac-AGVMHCFWDEEFKCDQGGTGGGK-NH2; disulfide 6-14 (inferred)) [SYN514]", "values": [{"measurement": "competition with IgG or albumin for the FcRn binding site", "setting": "[4]", "value": "non-IgG, non-albumin competitive"}]}
{"molecule": "CSCC[C@H](NC(=O)[C@H](Cc1ccc(O)cc1)NC(C)=O)C(=O)N[C@H](C(=O)N[C@H]1CSSC[C@@H](C(=O)N[C@@H](CCC(=O)O)C(=O)N[C@@H](Cc2ccc(O)cc2)C(=O)N[C@@H](C)C(N)=O)NC(=O)[C@H](CO)NC(=O)[C@H](Cc2ccccc2)NC(=O)CNC(=O)[C@H](CC(=O)O)NC(=O)[C@H](CC(=O)O)NC(=O)[C@H](Cc2c[nH]c3ccccc23)NC(=O)[C@H](CCCCN)NC1=O)[C@@H](C)O", "note": "[SYN1156] (Ac-YMTCKWDDGFSCEYA-NH2; disulfide 4-12 (inferred))", "values": [{"measurement": "Kd Ratio 7.4/6.0", "setting": "[2]; Table 2", "value": 38}, {"measurement": "pKd", "setting": "[2]; [7]", "value": 4.66}]}
{"molecule": "CC(=O)N[C@@H](C)C(=O)NCC(=O)N[C@@H](CCCNC(=N)N)C(=O)N[C@@H](Cc1ccc(O)cc1)C(=O)N[C@@H](Cc1ccccc1)C(=O)N[C@H]1CSSC[C@@H](C(=O)N[C@@H](CCC(=O)O)C(=O)N[C@@H](CCC(=O)O)C(=O)N[C@H](C(=O)NCC(=O)N[C@H](C(=O)NCC(=O)NCC(=O)NCC(=O)N[C@@H](CCCCN)C(N)=O)[C@@H](C)O)C(C)C)NC(=O)[C@H](Cc2c[nH]c3ccccc23)NC(=O)CNC(=O)[C@H](Cc2c[nH]cn2)NC(=O)[C@H](CCCCN)NC(=O)[C@H](Cc2c[nH]c3ccccc23)NC(=O)[C@H](CCCCN)NC(=O)[C@H]([C@@H](C)O)NC1=O", "note": "[SYN571] (Ac-AGRYFCTKWKHGWCEEVGTGGGK-NH2; disulfide 6-14)", "values": [{"measurement": "block of shFcRn binding to immobilized HSA", "setting": "[3]", "value": "completely block"}, {"measurement": "competition with IgG or albumin for the FcRn binding site", "setting": "[4]", "value": "albumin-competitive; also recorded: inhibit shFcRn:albumin interactions, but not those of IgG: shFcRn"}, {"measurement": "Kd Ratio 7.4/6.0", "setting": "[2]; Table 1", "value": 29}, {"measurement": "pKd", "setting": "[2]; [8]", "value": "6.35 and 6.30"}, {"measurement": "pKd", "setting": "[2]; Table 1, pH 7.4, shFcRn immobilized, read-out: Kd, pH 7.4 Biacore", "value": 4.88}]}
